Measured values from US20150159167A1, “Plants Tolerant to HPPD Inhibitor Herbicides” (Bayer CropScience AG, priority 2009, published 2015).

Tests used:
[1] = biological target: Synechococcus sp. HPPD "SEQ ID No. 5"; assay: HPLC assay of HPPD activity, in vitro kinetic properties; assay type: biochemical; conditions: 2 mM HPP
Protocol: Km, Vmax, and kcat values for different HPPD enzyme preparations and Ki, K1=Kon, and K−1=Koff for different HPPD inhibitors were determined using a HPLC assay for measurements of HPPD activity. […] All assays were started by the addition of HPPD enzyme to the assay mixture and stopped at a series of times between 0 and 240 s by addition of 200 μl of the reaction mixture to reaction assay tubes containing 20 μl 10% perchloric acid. Precipitated protein was pelleted by a 5 minute centrifugation at 10,000 g. […] A standard set of concentrations of HGA were used to provide a standard curve in order to calibrate the 292 nm absorbance of the HGA peak versus HGA concentration.
For Km and Vmax value determinations the initial rates of the HPPD reaction at different substrate concentrations were determined from plots of HGA formed versus time and fitted to the Michaelis-Menten equation for unireactant enzymes using the ID Business Solutions Ltd. (idbs.com) XLfit software suite. For the determination of Ki, K1=Kon, and K=−1=Koff values the time-courses of the HPPD reaction at different inhibitor concentrations were fitted to the equations for Mechanism A, competitive inhibition, for tight-binding inhibitors (Cha, S. (1975) Tight-binding inhibitors-I. Kinetic behaviour. Biochemical Pharmacology 24, 2177-2185) using the ID Business Solutions Ltd. XLfit software suite
(§1) In below given table 1, “Km” (Michaelis-Menten constant) means the kinetic parameter that is used to characterise an enzyme, and it is defined as the concentration of substrate that permits half maximal rate of the reaction. Km is further defined as the substrate concentration at which the reaction rate reaches half of its maximum value (Vmax/2) where Vmax has the meaning of being the maximum velocity of the reaction.
(§2) Kon=K1 equals the association rate constant of the […] binding and Koff=K−1 equals the rate constant of the enzyme-inhibitor complex dissociation. Ki defines the inhibition constant.

[2] = test system: tobacco calli containing HPPD SEQ ID No. 7 (Synechococcus sp.); assay: Rooting of calli on media with tembotrione; assay type: cell-based, Nicotiana tabacum; conditions: 6 to 12 weeks
Protocol: The leaf disks were co-cultivated for 2 days with Agrobacterium tumefaciens cells containing either the binary vector FMP38ebv or AtHPPDbv. Then the leaf disks were transferred to a media allowing the regeneration of shoots for 6 weeks on MS (Musharige and Skoog, (1962), Physiol Plant 15(3): 473-497) media supplemented with BAP ([…]; Benzylaminopurine), carbenicillin ([…]), cefotaxine ([…]), kanamycin (75 mg/mL) and tembotrione (10^−6 M)
Regenerated calli were transferred on media to induce the development of roots for 6 to 12 weeks: MS (1/2), supplemented with carbenicillin (250 mg/mL), cefotaxine (250 mg/mL), kanamycin (75 mg/mL), and tembotrione (10^−6 M).
Regenerated shoot calli from a cell transformed with a nucleic acid sequence encoding an HPPD comprising SEQ ID No. 11 (Arabidopsis thaliana) or SEQ ID No. 7 (Synechococcus sp.) were transferred to a media inducing root growth which media was further supplemented with the HPPD inhibitor tembotrione for 6 to 12 weeks.

[3] = biological target: T1, Arabidopsis thaliana HPPD "SEQ ID No. 10" (Arabidopsis thaliana, UniProt P93836); assay: HPLC assay of HPPD activity, in vitro kinetic properties; assay type: biochemical
T1 construct: Preparation of Synechococcus sp; Ala + 6xHis (N); made in house; host or cells: E. coli K-12 BL21 (pQE30-AtHPPD)
T1 sequence (P93836 with tags, fused parts or gaps): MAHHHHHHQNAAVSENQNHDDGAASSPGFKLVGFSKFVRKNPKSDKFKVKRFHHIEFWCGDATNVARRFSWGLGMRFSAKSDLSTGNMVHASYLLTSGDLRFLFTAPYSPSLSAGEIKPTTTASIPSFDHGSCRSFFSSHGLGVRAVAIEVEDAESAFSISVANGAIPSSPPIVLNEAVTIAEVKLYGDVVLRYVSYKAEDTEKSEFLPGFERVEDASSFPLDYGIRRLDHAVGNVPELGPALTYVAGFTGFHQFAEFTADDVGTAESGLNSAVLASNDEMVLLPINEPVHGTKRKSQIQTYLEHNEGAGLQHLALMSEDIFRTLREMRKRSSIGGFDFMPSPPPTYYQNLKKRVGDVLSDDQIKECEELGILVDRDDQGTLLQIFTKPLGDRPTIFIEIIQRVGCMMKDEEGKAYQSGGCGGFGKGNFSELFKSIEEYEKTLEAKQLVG
Protocol: Km, Vmax, and kcat values for different HPPD enzyme preparations and Ki, K1=Kon, and K−1=Koff for different HPPD inhibitors were determined using a HPLC assay for measurements of HPPD activity. […] All assays were started by the addition of HPPD enzyme to the assay mixture and stopped at a series of times between 0 and 240 s by addition of 200 μl of the reaction mixture to reaction assay tubes containing 20 μl 10% perchloric acid. Precipitated protein was pelleted by a 5 minute centrifugation at 10,000 g.
For Km and Vmax value determinations the initial rates of the HPPD reaction at different substrate concentrations were determined from plots of HGA formed versus time and fitted to the Michaelis-Menten equation for unireactant enzymes using the ID Business Solutions Ltd. (idbs.com) XLfit software suite.
as §1, §2

[4] = test system: rice shoots transformed with FMP38e; assay: Bleaching of rice shoots on MS/2 with tembotrione; assay type: in vivo; conditions: evaluation 2 weeks later
Protocol: Rice transformation was achieved using methods well known in the art. Briefly, the Agrobacterium tumefaciens mediated transformation of rice was performed using immature embryos, from the restorer line 6G4317. Briefly, panicles from donor plants were harvested 8-12 days after pollination. The lemma of the immature seed was removed. Seeds were thereafter sterilized using a NaOCl based solution and Tween. The seeds were preinduced with […]. Agrobacterium tumefaciens cells are then co-cultivated with the preinduced seeds in presence of acetosyringone for 4 days at 24° C. in the dark. Thereafter, coleoptile from embryos are removed and washed, then put on a media supplemented with phosphinothricin for 3 weeks at 28° C. under a photoperiod rhythm of 16 hours. Then the growing calli were cut off from the embryos, and transferred to fresh media containing triacillin, phosphinothricin, L-proline and copper (II) sulfate.
For each callusline and per Tembotrione concentration, 3 shoots, and randomly isolated from different callus pieces, were transferred to MS/2 with Tembotrione. As a general rule, transfer of the shoots from regeneration medium to MS/2 occurred 9 weeks after calli had been put on regeneration medium.
Cultures were incubated at 26.5° C. (16 hrs. photoperiod) and evaluation of symptoms occurred 2 weeks later.
New developing leaves of the shoots transferred have been scored on the basis of bleaching and categorized in 3 groups:
a) no bleaching b) intermediate bleaching c) complete bleaching
Within the category ‘intermediate bleaching’ a distinction has been made between shoots having new leaves showing only very little bleaching symptoms and thus tending to green leaves, and shoots with new leaves almost completely bleached.

CS(=O)(=O)c1ccc(C(=O)C2C(=O)CCCC2=O)c(Cl)c1COCC(F)(F)F [Tembotrione, 2-[2-chloro-4-(methylsulfonyl)-3-[(2,2,2,-tri-fluoroethoxy)methyl]benzoyl]-1,3-cyclo-hexanedione]
Ki [1]: 1.2 µM
k1 (Kon) [1]: 41000 M⁻¹ s⁻¹
k−1 (Koff) [1]: 0.05 s⁻¹
% Elongation & rooting on 10^−6 M tembotrione [2]: 80%
kon ([3]; read-out: k1 (Kon)): 230000 M⁻¹ s⁻¹
koff ([3]; read-out: k−1 (Koff)): 0.0035 s⁻¹
No of shoots completely bleached ([4]; 1 μM): 0
No of shoots with intermediate bleaching ([4]; 1 μM): 4
No of shoots without bleaching ([4]; 1 μM): 38
No of shoots with intermediate bleaching ([4]; 5 μM): 35
No of shoots without bleaching ([4]; 5 μM): 3
